In patent US5505922A, “Anesthetic pharmaceutical combination” (University of Maryland at Baltimore, priority 1995, dated 1996):
pIC50: −log10 of the molar value. Where two headings read alike, the source gives them in different places. Values belong to the molecule of their own block, whether it stands above or below them.

What was measured:
[1] = acutely, 250 mg per ml of lithium; cited from earlier work
[2] = system: desheathed ferret vagus nerves (C fibers); assay: In vitro recording of electrically stimulated compound action potentials from desheathed ferret vagus nerves (depression of action potential); format: cell-based; settings: for pIC50: read-out: ED50 (the source's name); for shift in the dose/response curve: lithium Lockes versus sodium Lockes, FIGS. 1 to 4; for in vitro ED50 reduction relative to control values: lithium-containing versus sodium Lockes vehicle
Description: To test if replacement of lithium ions for sodium ions reduced the required local anesthetic dose, an in vitro experiment was performed, wherein the electrically stimulated compound action potentials were recorded from desheathed ferret vagus nerves, which are an enriched source of C fibers.
The ferret vagus nerves were removed bilaterally and were desheathed under a Zeiss dissecting microscope with a magnification of 2.5X. A single desheathed nerve was then placed in a chamber interlaced with electrodes for stimulating and recording action potentials. The central section of the nerve passes through the central well containing either buffer or drug in buffer.
The stimulation voltage was adjusted to provide maximal action potential. The stimulus duration was 0.5 milliseconds. Stimulation and recording parameters were programmed, and stimuli were presented at 2 second intervals. Five successive action potentials were averaged and stored as an estimate of action potential activity each minute. The intervening […] action potential were discarded.
Control nerves were bathed in a 100% sodium Locke's solution, synthesized in the manner set forth in Synthesis Example 1 above. Experimental nerves were bathed in lithium Locke's solution, comprising 35 mol Eq. % lithium, 65 mol Eq. % sodium Locke's solution, synthesized in the manner set forth in Synthesis Example 2 above.
The electrical stimuli were applied to one end of the nerve, while on the other end, the resulting action potential propagation was measured using an oscilloscope and the recording computer. Varying doses of mepivacaine were administered to the nerves so that dose/response curves could be constructed under both ionic conditions.
Following a period of equilibration in a buffer where control recordings are made, the well was emptied and a molar concentration of a test anesthetic was added. Various molar concentrations of mepivacaine, an amide type local anesthetic (Sterling-Winthrop Research Institute, Rensselear, N.Y.), and procaine, an ester type local anesthetic (Sigma Chemical Co., St. Louis, Mo.) were tested in both sodium and lithium Locke's buffer vehicles, as described above.
Compound action potentials having two distinct peaks, labeled as A and C peaks, are observed and were recorded at 2 second intervals. Five consecutive action potentials were recorded for each one minute time period over 30 minutes. At 30 minutes, the anesthetic was removed and the chamber was perfused with buffer. Recording was continued during this 30 minute period. The averaged data, collected every 2 minutes, was then analyzed to determine the slope of the action potential, the height of the action potential, the area under the curve of the action potential and the conduction velocity. This was done for both the A and C peaks.
The data were then plotted as percent of control versus time. Other molar concentrations were administered from the dose where there was no effect on the A peak, and to a dose where the action potential was depressed to zero.
Inspection of the data allowed recording of the maximal observed effect for each of the concentrations studied. This observed maximum (or an asymptotic value derived from an appropriate equation) was used to generate log-probit linear regressions of the dose versus the effect. This is accomplished by conversion of the percent effect to the corresponding probit value, conversion of the dose to its log10 and fitting a first degree polynomial to the resultant data by the method of least squares.
The 95% confidence band was calculated and plotted for the data. From the equations of the best fit line and the confidence bands, doses estimated to produce 50, 90 and 95% depression of the four parameters were calculated for both the A and C peaks of the action potentials.
Table 1 was prepared using the results of each of the concentrations onsets (T 85%). […]

[3] = system: tooth pulps of the central incisors of rabbits; assay: In vivo electrically stimulated tooth pulp pain model (rabbit tooth pulp assay)
Description: To confirm the results of the in vitro experiments in vivo, an electrically stimulated tooth pulp pain model was used. The tooth pulps of the central incisors of rabbits were exposed using a high speed burr and dental drill.
Electrodes were inserted into the pulp chambers and the voltage required to elicit a lick/chew response was measured. The percentage analgesia was calculated from the following equation:
MPE=((TV-CV)/(10 V-CV))×100
wherein TV is the voltage after treatment; CV is the control voltage, and 10 V are the maximum volts applied.
The percent analgesia was recorded 0, 5, 10, 15, 30, 60, 120 and 180 minutes after injection.

[4] = control (sodium Lockes) buffer vehicle
[5] = in the lithium-containing buffer vehicle

SMILES: [Li] [lithium]
- acute tolerability [1]: well tolerated

- pIC50 [2, 4]: 3.38
- pIC50 [2, 5]: 3.57
SMILES: Cc1cccc(C)c1NC(=O)C1CCCCN1C (stereo not shown) [mepivacaine]
- shift in the dose/response curve [2]: not parallel and demonstrated that the effect of lithium was most pronounced at lower concentrations
- in vitro ED50 reduction relative to control values [2]: reduced to half their control values
- shift in the dose/response curves ([3]; lithium Lockes versus sodium Lockes, FIGS. 5 and 6): not parallel and demonstrated that the effect of lithium was most pronounced at lower concentrations
- in vivo ED50 reduction relative to standard sodium Lockes vehicle ([3]; lithium Lockes versus standard sodium Lockes vehicle): reduced to one third of its value
- ED50 ([3]; lithium present in the buffer vehicle): 0.69%
- ED50 ([3]; without lithium (sodium Lockes)): 1.93%

SMILES: CCN(CC)CCOC(=O)c1ccc(N)cc1 [procaine]
- pIC50 [2, 4]: 3.27
- pIC50 [2, 5]: 3.72
- shift in the dose/response curve [2]: not parallel and demonstrated that the effect of lithium was most pronounced at lower concentrations
- in vitro ED50 reduction relative to control values [2]: reduced to half their control values
